{
  "source": "patent US20240092741A1",
  "about": "“COMPOSITION FOR PREVENTION OR TREATMENT OF NEUROFIBROMATOSIS TYPE 2 SYNDROME” (PRG S&TECH INC., priority 2021, published 2024)",
  "key": {"[1]": {"test_system": "HEI-193 cells", "test": "Western blotting of marker proteins in HEI-193 cells", "assay_type": "cell-based, human", "details": "HEI-193 cells pretreated 6 h with leptomycin B 2 ng/ml or MG132 5 μM, then 10 μM compounds 24 h (FIGS. 14F, 14G)", "description": "(§1) Cells were harvested and lysed using RIPA buffer [50 mM Tris-Cl, pH 7.5, 150 mM NaCl, 1% NP-40, 0.1% SDS, and 10% sodium deoxycholate] to examine cellular signaling. Protein concentrations in samples were measured using Bio-Rad (Hercules, CA, USA) protein assay kits and BSA standards. The samples (20 μg protein per lane) were separated by sodium dodecyl sulfate-polyacrylamide gel electrophoresis (SDS-PAGE), transferred to Immobilon-P^SQ transfer membranes (Millipore Corp., MA, USA), which were then cultured with 3% skim milk-containing TBS-T buffer (Tris-HCl-based buffer containing 20 mM Tris pH 7.6, 150 mM NaCl, and 0.05% Tween 20) for 1 hour at room temperature and then reacted with primary antibody in TBS-T overnight at 4° C. The membranes were then washed and reacted with secondary horseradish peroxidase (HRP)-conjugated antibodies [goat anti-mouse, goat anti-rabbit, and mouse anti-goat antibodies (Pierce, Thermo Fisher Scientific, Inc., Rockford, IL, USA)] in TBS-T at room temperature for 2 hours. The blots were detected using an HRP-conjugated secondary antibody using ECL kit (Intron, Seoul, Korea)."}, "[2]": {"test_system": "HEI-193 cells", "test": "MTT cell viability assay in HEI-193 cells", "assay_type": "cell-based, human", "details": "10 μM, 48 h", "description": "(§2) To measure cell viability, MTT (3-(4,5-dimethylthiazol-2-yl)-2,5-diphenyltetrazolium bromide) assay was used. In other words, the cells were seeded in 96-well plates and treated with the indicated chemicals for a predetermined time. After removing the medium, 200 μl of MTT solution (0.5 mg/ml) dissolved in PBS was added to each well. Plates were then cultured at 37° C. for 4 hours, the MTT solution was removed, the precipitated substances were dissolved using a solution (DMSO:ethanol=1:1), and an amount of formazan dye produced was quantified by measuring the absorbance at 560 nm using an ELISA microplate reader (Thermo Fisher Scientific, MA, USA)."}, "[3]": {"test_system": "mouse schwannoma cells", "test": "MTT cell viability assay in mouse schwannoma cells", "assay_type": "cell-based", "details": "mouse schwannoma (NF2 mouse) cells, 10 μM, 48 h", "description": "as §2"}, "[4]": {"test_system": "TGF-β signaling", "test": "Smad2/3 phosphorylation after TGF-β1 in HEI-193 cells", "assay_type": "cell-based, human", "details": "10 μM, TGF-β1 2 ng/ml added after 12 h for 12 h (FIG. 5D)", "description": "as §1"}, "[5]": {"test_system": "HEI-193 cells", "test": "Tumorsphere formation assay, HEI-193 cells", "assay_type": "cell-based, human", "details": "HEI-193 cells, 10 μM, DMEM/F12 medium", "description": "(§3) For tumorsphere formation assay, Hei-193 or mouse schwannoma cells (3×10^6 cells/plate) were cultured in DMEM/F12 medium (supplemented with 2% B27 and 40 ng/ml bFGF) and added with the indicated chemicals on non-coated plates for indicated days."}, "[6]": {"test_system": "mouse schwannoma cells", "test": "Tumorsphere formation assay, mouse schwannoma cells", "assay_type": "cell-based", "details": "10 μM, DMEM/F12 medium", "description": "as §3"}, "[7]": {"test_system": "SOX2", "test": "SOX2 localization by IF and cell fractionation in HEI-193 cells", "assay_type": "cell-based, human", "details": "2 μM, 24 h, IF and cell fractionation (FIGS. 15C, 15D)", "description": "Cells were seeded on cover glass, washed with PBS, fixed with 4% paraformaldehyde (PFA) for 30 minutes at room temperature, and then permeabilized with 0.2% Triton X-100 at room temperature for 5 minutes. After treatment with blocking buffer [3% goat serum diluted in PBS] for 1 hour, cells were reacted with the specified antibody in the blocking buffer overnight at 4° C. Finally, the cells were reacted with secondary antibodies conjugated with FITC or rhodamine at 4° C. for 7 hours. The nuclei were stained with DAPI at room temperature for 10 minutes. After the cells were washed 3 times with PBS, the cover glass was mounted with a mounting solution (H-5501, Vector Laboratories, Cambridgeshire, UK) and immunofluorescence signals were detected using a fluorescence microscopy (Zeiss, Jena, Germany)."}, "[8]": {"test_system": "schwannoma", "details": "Mol Cancer Ther 17, 2271-2284, 2018; cited from earlier work"}, "[9]": {"test_system": "RKIP", "test": "RKIP expression by Western blotting in HEI-193 cells", "assay_type": "cell-based, human", "details": "compounds 10 μM, 24 h (FIG. 1A) or 72 h (FIG. 2), Western blot", "description": "as §1\nBecause RKIP degradation in NF2 cells is clearly known (Mol Cancer Ther 17, 2271-2284, 2018), after first treating 260 novel synthetic compounds, RKIP expression was measured in HEI-193, a human NF2 cell line."}, "[10]": {"test_system": "normal fibroblasts", "test": "MTT cell viability assay in normal fibroblasts", "assay_type": "cell-based, human", "details": "10 μM, 48 h (FIG. 3)", "description": "as §2"}, "[11]": {"molecular_target": "T1, interaction between TβR1 and RKIP (Homo sapiens, UniProt P30086+P36897)", "T1 construct": "host or cells: HEK293 (TβR1 lysate)", "T1 sequence (P30086 whole entry)": "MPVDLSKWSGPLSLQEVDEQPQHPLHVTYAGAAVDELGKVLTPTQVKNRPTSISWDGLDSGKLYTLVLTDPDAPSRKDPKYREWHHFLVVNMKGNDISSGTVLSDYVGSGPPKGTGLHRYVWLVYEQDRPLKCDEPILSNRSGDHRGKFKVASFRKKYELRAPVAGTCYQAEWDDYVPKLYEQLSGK", "T1 sequence (P36897 34-503)": "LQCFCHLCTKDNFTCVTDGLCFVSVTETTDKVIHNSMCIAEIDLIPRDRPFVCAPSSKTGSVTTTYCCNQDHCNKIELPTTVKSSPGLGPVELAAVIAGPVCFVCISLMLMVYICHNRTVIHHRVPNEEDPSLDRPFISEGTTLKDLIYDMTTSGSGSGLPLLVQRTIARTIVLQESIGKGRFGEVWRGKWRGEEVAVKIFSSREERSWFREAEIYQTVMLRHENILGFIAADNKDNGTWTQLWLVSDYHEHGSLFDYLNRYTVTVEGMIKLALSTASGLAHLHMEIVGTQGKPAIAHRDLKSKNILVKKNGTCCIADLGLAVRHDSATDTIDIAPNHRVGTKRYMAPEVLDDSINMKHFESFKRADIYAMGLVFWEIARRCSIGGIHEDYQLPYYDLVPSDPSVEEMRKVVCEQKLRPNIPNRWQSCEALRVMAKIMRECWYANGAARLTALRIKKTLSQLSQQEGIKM", "test": "GST-pull down assay of TβR1-RKIP interaction", "assay_type": "binding", "details": "GST-RKIP beads with TβR1-transfected HEK293 lysates, 5 and 10 μM, 2 h (FIG. 5B)", "description": "For protein-protein interaction analysis, glutathione S-transferase (GST)-pull down assay was performed. For GST-pull down, agarose-bead-conjugated GST-RKIP recombinant protein was reacted with FLAG-tagged TβR1-transfected HEK 293 cell lysates in PBS buffer at 4° C. for 1 hour. Immunoprecipitation (IP) assay was performed by reacting with FLAG-tagged TβR1- or HA-tagged RKIP-transfected HEI-193 cell lysates in PBS buffer. Whole lysates were reacted with appropriate primary antibodies at 4° C. for 2 hours and with agarose-bead-conjugated protein A/G (Invitrogen, Carlsbad, CA, USA) for 2 hours. After centrifugation, the precipitates were washed twice with RIPA buffer and subjected to SDS-PAGE and western blotting analysis."}},
  "note": "Peptide text beside a SMILES is read from it. * marks the point of attachment. Cbz = O=C(OCc1ccccc1)*",
  "data": [
    {"smiles": "CC(C)C[C@@H](C=O)NC(=O)[C@H](CC(C)C)NC(=O)[C@H](CC(C)C)NC(=O)OCc1ccccc1", "note": "[MG312, reference compound] (Cbz-Leu-Leu-Leu-aldehyde)", "values": [
      {"measurement": "PRG-N-01/TEW7197-induced reduction in SOX2", "setting": "[1]", "value": "blocked"}
    ]},
    {"smiles": "Cc1cccc(-c2[nH]c(CNc3ccccc3F)nc2-c2ccc3ncnn3c2)n1", "note": "[TEW7197, N-((4-([1,2,4]triazolo[1,5-a]pyridin-6-yl)-5-(6-methylpyridin-2-yl)-1H-imidazol-2-yl)methyl)-2-fluoroaniline, reference compound]", "values": [
      {"measurement": "cell viability (MTT)", "setting": "[2]", "value": "suppressed cell viability"},
      {"measurement": "cell viability (MTT)", "setting": "[3]", "value": "suppressed cell viability"},
      {"measurement": "Smad2/3 phosphorylation in response to TGF-β", "setting": "[4]", "value": "TGF-β signal inhibition"},
      {"measurement": "tumorsphere formation", "setting": "[5]", "value": "weak inhibitory effect"},
      {"measurement": "tumorsphere formation", "setting": "[6]", "value": "weak inhibitory effect"},
      {"measurement": "localization of nuclear SOX2", "setting": "[7]", "value": "moved to the cytosol"},
      {"measurement": "schwannoma in a mouse model with NF2 syndrome", "setting": "[8]", "value": "inhibited schwannoma"}
    ]},
    {"smiles": "CCN(CC)CCOc1ccc(-c2nnn(Cc3ccc(OCc4ccccc4)cc3)c2NC(=O)OC(C)(C)C)cc1", "note": "[NF-08001]", "values": [
      {"measurement": "RKIP expression", "setting": "[9]", "value": "induction of RKIP"},
      {"measurement": "cell viability (MTT)", "setting": "[2]", "value": "anti-proliferating effect"},
      {"measurement": "cytotoxicity in normal cells (MTT)", "setting": "[10]", "value": "exhibited normal cytotoxicity"},
      {"measurement": "interaction between TβR1 and RKIP", "setting": "[11]", "value": "inhibitory effect"}
    ]},
    {"smiles": "CCC(=C/[C@H](C)C/C=C/C(C)=C/[C@@H](C)C(=O)[C@@H](C)[C@H](O)[C@@H](C)C/C(C)=C/C(=O)O)/C=C/[C@@H]1OC(=O)C=C[C@@H]1C", "note": "[leptomycin B, reference compound]", "values": [
      {"measurement": "PRG-N-01/TEW7197-induced reduction in SOX2", "setting": "[1]", "value": "blocked"}
    ]}
  ]
}
